Reference: ChEMBL document CHEMBL1201862, “PubChem BioAssay data set” (2004)
Activity calls are given as the source filed them. Rule as the data show it, for most assays here: actives have a measured EC50 and inactives only a lower limit.

How the values were obtained:
[1] = luciferase reporter signal suppression in cells – H4 neuroglioma cells, luminescence, dose response (AID 1990); type: functional, cell-based
[2] = test system: Streptococcus sp. 'group A'; assay: Streptococcus pyogenes SK(-)GAS viability under kanamycin – luminescence, BacTiterGlo, confirmation, counter-screen for streptokinase expression inhibitor project, dose response (AID 1900); type: functional, organism-based
BJ [3] = assay: BJ-TERT fibroblast viability loss – cell-based, RAS-independent, luminescence, dose response (AID 1933); type: functional; conditions: Homo sapiens
[4] = Luminescence Cell-Based Dose Response HTS to Identify Inhibitors of 5'UTR Stem-Loop Driven Prion Protein mRNA Translation in H4 Neuroglioblastoma Cells. [Related pubchem assays: 1827 (Project Summary), 1813 (Primary HTS)]; type: functional
BJ [5] = assay: cells; type: functional, cell-based; conditions: Homo sapiens
[6] = Trypanosoma cruzi growth suppression in host cells – NIH3T3 host cells, beta-gal luminescence, confirmation (AID 2044); type: functional, cell-based;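 also: intracellular parasites grown in NIH/3T3 mouse fibroblasts as host cells; luminescent beta-galactosidase reporter signal from transgenic T. cruzi replicating inside host cells; inhibitors lower the luminescence signal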
[7] = Luminescence-based dose response cell-based high throughput screening assay for cytotoxic compounds using the IEC-6 intestinal epithelial cell line. [Related pubchem assays: 1858 (Summary AID.), 1825 (Counterscreen.), 1907 (Confirmation screen.)]; type: functional
[8] = NIH3T3 cell viability loss – ATP luminescence, mouse fibroblasts, counter-screen, dose response (AID 2010); type: functional, cell-based;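 also: cells exposed to compound for about 90 hours before reading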
BJ [9] = assay: BJ-TERT-LT-ST fibroblast viability loss – cell-based, RAS-independent, luminescence, dose response (AID 1935); type: functional; conditions: Homo sapiens;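 also: BJ fibroblasts immortalized with TERT plus LT and ST oncogenes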
[10] = DRD fibroblast viability loss – cell-based, non-viral oncogenic, luminescence, dose response (AID 1934); type: functional; conditions: Homo sapiens
Streptococcus [11] = assay: GAS UMAA2166 growth inhibition – luminescence, BacTiterGlo, counter-screen for streptokinase expression inhibitor project, dose response (AID 1915); type: functional, organism-based;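 also: potency for reduction of bacterial viability or growth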
[12] = mitochondrial function rescue without frataxin homolog – Friedreich's ataxia, plus single-dose screen, dose response (AID 1465); type: functional;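 also: yeast depleted of Yfh1p frataxin homolog grown on glycerol needing respiration; WST-1 tetrazolium dye reduction as measure of cellular dehydrogenase metabolic activity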
[13] = target: 5-hydroxytryptamine receptor 1E (Homo sapiens, UniProt P28566); assay: Counterscreen assay for S1P3 antagonists: Dose response cell-based high throughput screening assay to identify antagonists of the 5-Hydroxytryptamine Receptor Subtype 1E (5HT1E). [Related pubchem assays: 1429, 485 ]; type: functional
[14] = target: Sphingosine 1-phosphate receptor 3 (Homo sapiens, UniProt Q99500); assay: Dose response cell-based high throughput screening assay for antagonists of the Sphingosine 1-Phosphate Receptor 3 (S1P3). [Related pubchem assays: 1429, 485 ]; type: functional
Streptokinase A = target: T1, Streptokinase A (Streptococcus pyogenes serotype M1, UniProt P10520); assay: Absorbance Microorganism-Based Dose Response Follow up to Identify Inhibitors of Streptokinase Expression. [Related pubchem assays: 1677 (Project Summary), 1915, 1914, 1902 (Retest at Dose), 1900 (Counter Screen), 1662 (Primary HTS)]; type: functional, Streptococcus pyogenes M1 GAS
T1 sequence (P10520 whole entry): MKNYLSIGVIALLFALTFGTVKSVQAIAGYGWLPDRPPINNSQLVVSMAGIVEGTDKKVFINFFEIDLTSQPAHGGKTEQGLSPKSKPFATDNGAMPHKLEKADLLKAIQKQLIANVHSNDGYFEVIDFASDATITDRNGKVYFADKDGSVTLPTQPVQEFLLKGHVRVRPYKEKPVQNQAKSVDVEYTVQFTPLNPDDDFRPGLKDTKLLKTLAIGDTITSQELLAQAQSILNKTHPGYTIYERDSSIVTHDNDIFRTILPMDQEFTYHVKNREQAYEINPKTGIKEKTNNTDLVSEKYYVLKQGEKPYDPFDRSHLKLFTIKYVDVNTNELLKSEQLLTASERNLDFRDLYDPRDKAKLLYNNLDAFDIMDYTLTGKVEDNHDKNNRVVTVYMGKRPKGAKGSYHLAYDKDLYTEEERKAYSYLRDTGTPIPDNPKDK

Streptococcus [15] = assay: GAS bacterial viability reduction – luminescence, BacTiter-Glo, strain UMAA2166, counter-screen for streptokinase expression inhibitor project, dose response (AID 2477); type: functional, organism-based

Chain of 5-hydroxytryptamine receptor 1E (P28566 whole entry): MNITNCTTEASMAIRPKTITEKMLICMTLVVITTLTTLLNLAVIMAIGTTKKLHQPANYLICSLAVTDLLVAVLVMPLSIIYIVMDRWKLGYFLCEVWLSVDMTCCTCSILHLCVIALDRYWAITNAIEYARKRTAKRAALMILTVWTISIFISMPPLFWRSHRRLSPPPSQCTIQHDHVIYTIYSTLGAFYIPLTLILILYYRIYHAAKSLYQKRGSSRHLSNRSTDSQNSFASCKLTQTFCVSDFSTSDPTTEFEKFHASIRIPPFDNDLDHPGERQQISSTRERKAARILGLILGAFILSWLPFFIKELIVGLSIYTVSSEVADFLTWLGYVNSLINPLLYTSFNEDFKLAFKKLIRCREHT
Chain of Sphingosine 1-phosphate receptor 3 (Q99500 whole entry): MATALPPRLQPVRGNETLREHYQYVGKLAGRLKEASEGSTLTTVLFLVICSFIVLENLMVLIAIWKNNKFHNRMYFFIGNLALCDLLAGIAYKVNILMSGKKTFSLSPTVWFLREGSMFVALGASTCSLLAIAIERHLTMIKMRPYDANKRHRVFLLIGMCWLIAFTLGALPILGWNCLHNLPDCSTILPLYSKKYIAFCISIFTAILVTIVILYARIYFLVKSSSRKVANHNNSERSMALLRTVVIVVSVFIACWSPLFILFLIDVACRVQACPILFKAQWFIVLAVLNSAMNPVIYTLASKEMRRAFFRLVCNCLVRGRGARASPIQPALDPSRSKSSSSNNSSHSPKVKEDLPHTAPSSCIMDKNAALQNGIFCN

**Q.** Which results are given for `COc1ccccc1-c1nnc(Nc2nc3c(OC)cccc3s2)o1`?
**A.** EC50 [1]: 8.66 µM (inconclusive); EC50 [2]: 1.67 µM (active); EC50 (BJ [3]): 904 nM (active); EC50 [4]: 5.65 µM (active); EC50 (BJ [5]): 635 nM (active); EC50 [6]: 559 nM (active); IC50 [7]: 886 nM (active); EC50 [8]: 576 nM (active); EC50 (BJ [9]): 457 nM (inconclusive); EC50 [10]: 28.9 µM (inconclusive); EC50 (Streptococcus [11]): > 150 µM (inconclusive)

**Q.** With `COc1cccc(N/N=C2\C(=O)Nn3c2nc2c(c3=O)CCC2)c1` as the compound, how does the EC50 [12] read?
**A.** > 100 µM (active)

**Q.** For `Cc1ccc(NC(=O)C(OC(=O)c2ccc(F)cc2)c2ccccc2)cc1Cl` (stereo unspecified), which IC50 [13] is on record?
**A.** 15.6 µM (not active)

**Q.** What about the IC50 [14] of the same compound?
**A.** 6.4 µM (active)

**Q.** Which EC50 (Streptokinase A) does the source give for `COc1ccc(S(=O)(=O)c2ccc(NC(=O)c3ccccc3Cl)cc2C#N)cc1` here?
**A.** 5.44 µM (active)

**Q.** What about the EC50 (Streptococcus [15]) of the same compound?
**A.** 40.5 µM (active)
